Biological target: T1, Chk1 (Homo sapiens, UniProt O14757)
T1 construct: purchased Upstate Biotechnology
T1 sequence (O14757 1-476): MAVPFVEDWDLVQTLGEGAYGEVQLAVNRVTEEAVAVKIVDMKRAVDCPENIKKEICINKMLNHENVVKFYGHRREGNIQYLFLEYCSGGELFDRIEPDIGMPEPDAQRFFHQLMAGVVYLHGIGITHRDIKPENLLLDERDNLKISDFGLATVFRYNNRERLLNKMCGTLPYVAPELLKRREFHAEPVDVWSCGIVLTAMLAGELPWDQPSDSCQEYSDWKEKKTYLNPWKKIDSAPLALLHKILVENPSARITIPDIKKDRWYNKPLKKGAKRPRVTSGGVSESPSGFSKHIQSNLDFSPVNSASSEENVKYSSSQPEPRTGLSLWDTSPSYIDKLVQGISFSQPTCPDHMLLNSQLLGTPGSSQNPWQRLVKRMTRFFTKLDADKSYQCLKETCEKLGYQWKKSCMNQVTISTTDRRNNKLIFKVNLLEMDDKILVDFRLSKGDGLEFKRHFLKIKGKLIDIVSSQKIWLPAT
Assay: Chk1 kinase assay: incorporation of γ-33P ATP into immobilized myelin basic protein
Format: biochemical
Details: Table 11; Chk1 only; read-out: Chk1 IC50
Method in brief: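 MBP coated on plates (20 μg/ml) was phosphorylated by Chk1 (10 nM) or Chk2 (20 nM) with γ-33P ATP plus 10 μM (Chk1) or 30 μM (Chk2) unlabeled ATP, 1 h at room temperature, 1% DMSO. Bound radioactivity was counted by scintillation after washing; IC50 or Ki derived from fitted rate data.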

Compound	IC50
CNC(=O)c1nc(-c2cccc(CNC3CCc4cccc(F)c43)c2)cnc1N (stereo not drawn) [Example 502, 3-amino-6-(3-{[(7-fluoro-2,3-dihydro-1H-inden-1-yl)amino]methyl}phenyl)-N-methylpyrazine-2-carboxamide]	0.05 to 1 µM
CNC(=O)c1nc(-c2cnc3ccccc3c2)cnc1N [Example 503, 3-amino-N-methyl-6-quinolin-3-ylpyrazine-2-carboxamide]	1 to 10 µM
CNC(=O)c1nc(-c2cccc(Cn3ccnc3)c2)cnc1N [Example 504, 3-amino-6-[3-(1H-imidazol-1-ylmethyl)phenyl]-N-methylpyrazine-2-carboxamide]	0.05 to 1 µM
CNC(=O)c1nc(-c2cccc(CNC3CCc4cc(OCCN5CCOCC5)ccc43)c2)cnc1N (stereo not drawn) [Example 505, 3-amino-N-methyl-6-{3-[({5-[(2-morpholin-4-ylethyl)oxy]-2,3-dihydro-1H-inden-1-yl}amino)methyl]phenyl}pyrazine-2-carboxamide]	0.05 to 1 µM
CNC(=O)c1nc(-c2cccc(CN[C@@H]3CCC[C@H]3OCc3ccccc3)c2)cnc1N [Example 506, 3-amino-N-methyl-6-{3-[({(1R,2R)-2-[(phenylmethyl)oxy]cyclopentyl}amino)methyl]phenyl}pyrazine-2-carboxamide]	0.05 to 1 µM
CNC(=O)c1nc(-c2cccc(CNC3COc4ccccc43)c2)cnc1N (stereo not drawn) [Example 507, 3-amino-6-{3-[(2,3-dihydro-1-benzofuran-3-ylamino)methyl]phenyl}-N-methylpyrazine-2-carboxamide]	0.05 to 1 µM
CNC(=O)c1nc(-c2cccc(CNC3CCc4cc(OCC#N)ccc43)c2)cnc1N (stereo not drawn) [Example 508, 3-amino-6-{3-[({5-[(cyanomethyl)oxy]-2,3-dihydro-1H-inden-1-yl}amino)methyl]phenyl}-N-methylpyrazine-2-carboxamide]	0.05 to 1 µM
CNC(=O)c1cc(-c2cccc(CN[C@H]3CCc4ccccc43)c2)cnc1N [Example 509, 2-amino-5-(3-{[(1S)-2,3-dihydro-1H-inden-1-ylamino]methyl}phenyl)-N-methylpyridine-3-carboxamide]	0.05 to 1 µM
CNC(=O)c1nc(-c2cccc(CNC3CCc4cc(-c5ccc(C)cc5)ccc43)c2)cnc1N (stereo not drawn) [Example 510, 3-amino-N-methyl-6-[3-({[5-(4-methylphenyl)-2,3-dihydro-1H-inden-1-yl]amino}methyl)phenyl]pyrazine-2-carboxamide]	0.05 to 1 µM
CNC(=O)c1nc(-c2cccc(CNC(CN(C)C)c3ccccc3)c2)cnc1N (stereo not drawn) [Example 511, 3-amino-6-[3-({[2-(dimethylamino)-1-phenylethyl]amino}methyl)phenyl]-N-methylpyrazine-2-carboxamide]	0.05 to 1 µM
CNC(=O)c1nc(-c2cccc(CNC3CCc4cc(-n5cncn5)ccc43)c2)cnc1N (stereo not drawn) [Example 512, 3-amino-N-methyl-6-[3-({[5-(1H-1,2,4-triazol-1-yl)-2,3-dihydro-1H-inden-1-yl]amino}methyl)phenyl]pyrazine-2-carboxamide]	0.05 to 1 µM
CNC(=O)c1nc(-c2cccc(CNC3CCc4cc(O)ccc43)c2)cnc1N (stereo not drawn) [Example 513, 3-amino-6-(3-{[(5-hydroxy-2,3-dihydro-1H-inden-1-yl)amino]methyl}phenyl)-N-methylpyrazine-2-carboxamide]	0.05 to 1 µM
CNC(=O)c1nc(-c2cccc(CNC3CCc4c(OCCN5CCOCC5)cccc43)c2)cnc1N (stereo not drawn) [Example 514, 3-amino-N-methyl-6-{3-[({4-[(2-morpholin-4-ylethyl)oxy]-2,3-dihydro-1H-inden-1-yl}amino)methyl]phenyl}pyrazine-2-carboxamide]	0.05 to 1 µM
CNC(=O)c1nc(-c2ccc3ccnc(NCc4ccccc4)c3c2)cnc1N [Example 516, 3-amino-N-methyl-6-{1-[(phenylmethyl)amino]isoquinolin-7-yl}pyrazine-2-carboxamide]	1 to 10 µM
CNC(=O)c1nc(-c2cccc(CNC(CN3CCOCC3)c3ccccc3)c2)cnc1N (stereo not drawn) [Example 517, 3-amino-N-methyl-6-(3-{[(2-morpholin-4-yl-1-phenylethyl)amino]methyl}phenyl)pyrazine-2-carboxamide]	1 to 10 µM
CNC(=O)c1nc(-c2cccc(CNC(CN3CCCC3)c3ccccc3)c2)cnc1N (stereo not drawn) [Example 518, 3-amino-N-methyl-6-(3-{[(1-phenyl-2-pyrrolidin-1-ylethyl)amino]methyl}phenyl)pyrazine-2-carboxamide]	0.05 to 1 µM
CNC(=O)c1cc(-c2cccc(CNC3CCc4ccc(Br)cc43)c2)cnc1N (stereo not drawn) [Example 519, 2-amino-5-(3-{[(6-bromo-2,3-dihydro-1H-inden-1-yl)amino]methyl}phenyl)-N-methylpyridine-3-carboxamide]	0.05 to 1 µM
CNC(=O)c1cc(-c2cccc(CNC3CCc4c(F)cc(F)cc43)c2)cnc1N (stereo not drawn) [Example 520, 2-amino-5-(3-{[(4,6-difluoro-2,3-dihydro-1H-inden-1-yl)amino]methyl}phenyl)-N-methylpyridine-3-carboxamide]	0.05 to 1 µM
CNC(=O)c1cc(-c2cccc(CNC3CCc4c(F)ccc(Br)c43)c2)cnc1N (stereo not drawn) [Example 521, 2-amino-5-(3-{[(7-bromo-4-fluoro-2,3-dihydro-1H-inden-1-yl)amino]methyl}phenyl)-N-methylpyridine-3-carboxamide]	1 to 10 µM
CNC(=O)c1cc(-c2cccc(CNC3CCc4c(Cl)cccc43)c2)cnc1N (stereo not drawn) [Example 522, 2-amino-5-(3-{[(4-chloro-2,3-dihydro-1H-inden-1-yl)amino]methyl}phenyl)-N-methylpyridine-3-carboxamide]	0.05 to 1 µM
CNC(=O)c1cc(-c2cccc(CNC3CCc4cc(F)c(F)cc43)c2)cnc1N (stereo not drawn) [Example 523, 2-amino-5-(3-{[(5,6-difluoro-2,3-dihydro-1H-inden-1-yl)amino]methyl}phenyl)-N-methylpyridine-3-carboxamide]	0.05 to 1 µM
CNC(=O)c1cc(-c2cccc(CNC3CCc4cc(F)cc(F)c43)c2)cnc1N (stereo not drawn) [Example 524, 2-amino-5-(3-{[(5,7-difluoro-2,3-dihydro-1H-inden-1-yl)amino]methyl}phenyl)-N-methylpyridine-3-carboxamide]	0.05 to 1 µM

Results, then the compound that gave them:

IC50	Compound
< 0.05 µM	CNC(=O)c1nc(-c2cccc(CNC3CCc4c(Br)cccc43)c2)cnc1N (stereo not drawn) [Example 492, 3-amino-6-(3-{[(4-bromo-2,3-dihydro-1H-inden-1-yl)amino]methyl}phenyl)-N-methylpyrazine-2-carboxamide]
< 0.05 µM	CNC(=O)c1nc(-c2cccc(CNC3CCc4c(-c5ccccc5)cccc43)c2)cnc1N (stereo not drawn) [Example 493, 3-amino-N-methyl-6-(3-{[(4-phenyl-2,3-dihydro-1H-inden-1-yl)amino]methyl}phenyl)pyrazine-2-carboxamide]
< 0.05 µM	CNC(=O)c1nc(-c2cccc(CNC3CCc4c(-c5cccs5)cccc43)c2)cnc1N (stereo not drawn) [Example 494, 3-amino-N-methyl-6-[3-({[4-(2-thienyl)-2,3-dihydro-1H-inden-1-yl]amino}methyl)phenyl]pyrazine-2-carboxamide]
0.05 to 1 µM	CNC(=O)c1nc(-c2cccc(CNC3CCc4ccc(-c5cccs5)cc43)c2)cnc1N (stereo not drawn) [Example 495, 3-amino-N-methyl-6-[3-({[6-(2-thienyl)-2,3-dihydro-1H-inden-1-yl]amino}methyl)phenyl]pyrazine-2-carboxamide]
< 0.05 µM	CNC(=O)c1nc(-c2cccc(CNC3CCc4cc(-c5cc(C)cs5)ccc43)c2)cnc1N (stereo not drawn) [Example 496, 3-amino-N-methyl-6-[3-({[5-(4-methyl-2-thienyl)-2,3-dihydro-1H-inden-1-yl]amino}methyl)phenyl]pyrazine-2-carboxamide]
0.05 to 1 µM	CNC(=O)c1nc(-c2cccc(CN[C@@H]3CCc4cc(-c5ccccc5)ccc4C3)c2)cnc1N [Example 497, 3-amino-N-methyl-6-[3-({[(2R)-6-phenyl-1,2,3,4-tetrahydronaphthalen-2-yl]amino}methyl)phenyl]pyrazine-2-carboxamide]
0.05 to 1 µM	CNC(=O)c1nc(-c2ccc3ccccc3c2)cnc1N [Example 498, 3-amino-N-methyl-6-naphthalen-2-ylpyrazine-2-carboxamide]
0.05 to 1 µM	CNC(=O)c1nc(-c2cccc(CN[C@H]3CCC[C@@H]3OCc3ccccc3)c2)cnc1N [Example 499, 3-amino-N-methyl-6-{3-[({(1S,2S)-2-[(phenylmethyl)oxy]cyclopentyl}amino)methyl]phenyl}pyrazine-2-carboxamide]
0.05 to 1 µM	CNC(=O)c1nc(-c2cccc(CNC3CCCC3)c2)cnc1N [Example 500, 3-amino-6-{3-[(cyclopentylamino)methyl]phenyl}-N-methylpyrazine-2-carboxamide]
0.05 to 1 µM	CNC(=O)c1nc(-c2cccc(CNC3CCc4ccc(Br)cc43)c2)cnc1N (stereo not drawn) [Example 501, 3-amino-6-(3-{[(6-bromo-2,3-dihydro-1H-inden-1-yl)amino]methyl}phenyl)-N-methylpyrazine-2-carboxamide]
< 0.05 µM	CNC(=O)c1nc(-c2cccc(CNC3CCc4c(O)cccc43)c2)cnc1N (stereo not drawn) [Example 515, 3-amino-6-(3-{[(4-hydroxy-2,3-dihydro-1H-inden-1-yl)amino]methyl}phenyl)-N-methylpyrazine-2-carboxamide]
